# Measured values: paper PMC5756101 (Journal of neuro-oncology, 2017)
# Where two headings read alike, the source gives them in different places.
# Experiments:
# [1] = clinical; conditions: human, in vivo
# [2] = tested on: patients with recurrent malignant glioma; conditions: single agent, cited from earlier work
# [3] = tested on: GBM; conditions: second line treatment of patients with GBM; cited from earlier work
Compound,change of AUC between daily or twice daily dosing [1],AUC ([1]; 100 mg),T1/2 ([1]; 100 mg),"AUC ([1]; 100 mg, AUC)","half-life ([1]; 100 mg, T1/2)",predominant DLT ([2]; patients not taking EIAEDs),predominant DLT ([2]; patients on EIAEDs),"AUC from 0–12 hours at MTD, those receiving EIAEDs compared with those not receiving EIAEDs [2]",6-months progression free survival (PFS) [3]
"Cn1cncc1[C@@](N)(c1ccc(Cl)cc1)c1ccc2c(c1)c(-c1cccc(Cl)c1)cc(=O)n2C [tipifarnib, Tipifarnib]",do not seem to change significantly,761.5 ± 468.8 ng·h/mL,3.35 ± 1.29 h,904 ± 377 ng·h/mL,6.57 ± 1.18 h,myelosuppression,rash,approximately halved,–
bevacizumab,–,–,–,–,–,–,–,–,29–45%
